Test results from patent US20230053540A1, “TREATMENT OF LIVER INJURY” (Massachusetts Institute of Technology, priority 2019, published 2023).

Tested on: hepatocytes
Experiment: Seq-Well scRNA-Seq of hepatocytes after APAP overdose (signature scores, DEG vs untreated)
Type: in vivo, mouse
Conditions: A24 vs untreated (UT)

SMILES: CC(=O)Nc1ccc(O)cc1 [APAP, acetaminophen]
- avg_logFC Ces3a: −0.3687
- avg_logFC Ces1d: −0.4289
- avg_logFC Cfh: 0.4009
- avg_logFC Cfi: 0.2516
- avg_logFC Chchd2: −0.3949
- avg_logFC Clpx: −0.4047
- avg_logFC Cltc: 0.4381
- avg_logFC Cmah: 0.3616
- avg_logFC Cmbl: −0.3124
- avg_logFC Cml1: −0.3269
- avg_logFC Cml2: 0.2654
- avg_logFC Copa: 0.3451
- avg_logFC Cox4i1: −0.4542
- avg_logFC Cox5b: −0.3378
- avg_logFC Cox6c: −0.5028
- avg_logFC Cox7a2: −0.3635
- avg_logFC Cp: 0.3174
- avg_logFC Cpb2: 0.3222
- avg_logFC Cps1: 0.3245
- avg_logFC Creld2: 0.6087
- avg_logFC Csad: −0.5313
- avg_logFC Csde1: 0.3269
- avg_logFC Cth: −0.5109
- avg_logFC Ctsc: 0.3004
- avg_logFC Cxcl1: 0.4498
- avg_logFC Cyb5: −0.7048
- avg_logFC Cyb5r3: 0.339
- avg_logFC Cyp4a10: −0.7422
- avg_logFC Dcxr: −0.4107
- avg_logFC Ddt: −0.4224
- avg_logFC Dhcr24: 0.4238
- avg_logFC Dnajc3: 0.4564
- avg_logFC Dnajc12: 0.3221
- avg_logFC Dstn: 0.3243
- avg_logFC Ech1: −0.4291
- avg_logFC Eef1a1: 0.4393
- avg_logFC Eef2: 0.2701
- avg_logFC Efna1: 0.3361
- avg_logFC Egfr: 0.505
- avg_logFC Eif4g1: 0.3108
- avg_logFC Eif4g2: 0.466
- avg_logFC Elovl2: 0.4522
- avg_logFC Elovl3: −0.676
- avg_logFC Ephx2: −0.3693
- avg_logFC Etnk1: 0.3521
- avg_logFC Etnppl: −0.4283
- avg_logFC Fabp2: −0.3922
- avg_logFC Fdx1: −0.3447
- avg_logFC Fga: 0.8285
- avg_logFC Fgb: 0.745
- avg_logFC Fgg: 0.6805
- avg_logFC Fgl1: 0.8649
- avg_logFC Fn1: 0.6996
- avg_logFC Fndc3b: 0.3485
- avg_logFC Fos: 0.432
- avg_logFC Fxyd1: −0.3118
- avg_logFC Gadd45g: −0.614
- avg_logFC Gas5: −0.3362
- avg_logFC Gchfr: −0.3869
- avg_logFC Gjb2: 0.3911
- avg_logFC Glud1: 0.451
- avg_logFC Gm4076: −0.3255
- avg_logFC Gm5096: −0.3631
- avg_logFC Gm13775: −1.032
- avg_logFC Gm15564: 1.821
- avg_logFC Gm24270: 0.268
- avg_logFC Gm24601: 0.9844
- avg_logFC Gm26917: 0.8237
- avg_logFC Gm26924: 1.419
- avg_logFC Gnmt: −0.4604
- avg_logFC Gpx1: −0.508
- avg_logFC Grip2: 0.8779
- avg_logFC Gsta3: −0.6694
- avg_logFC Hamp: −0.8261
- avg_logFC Hao1: 0.323
- avg_logFC Hbb-bs: 1.043
- avg_logFC Hc: 0.3679
- avg_logFC Hdlbp: 0.5651
- avg_logFC Hint1: −0.4737
- avg_logFC Hint2: −0.3702
- avg_logFC Hmgcs2: −0.3173
- avg_logFC Hnf4a: 0.4549
- avg_logFC Hook1: 0.3274
- avg_logFC Hp: 0.4313
- avg_logFC Hpd: −0.3133
- avg_logFC Hs3st3b1: 0.343
- avg_logFC Hsd3b7: −0.3953
- avg_logFC Hsp90b1: 0.5342
- avg_logFC Hspa5: 0.6105
- avg_logFC Hspa8: −0.36
- avg_logFC Hspa13: 0.3548
- avg_logFC Hyou1: 0.8465
- avg_logFC Ibtk: 0.3311
- avg_logFC Igfbp1: −0.3162
- avg_logFC Igfbp2: −0.3451
- avg_logFC Iigp1: 0.4542
- avg_logFC Il6st: 0.3335
- avg_logFC Il13ra1: 0.303
- avg_logFC Inmt: −0.4435
- avg_logFC Insig1: 0.4655
- avg_logFC Ipo7: 0.2592
- avg_logFC Itih2: 0.2987
- avg_logFC Itih3: 0.4929
- avg_logFC Itih4: 0.5251
- avg_logFC Khk: −0.2976
- avg_logFC Kmo: 0.3022
- avg_logFC Kng1: 0.2658
- avg_logFC Lars2: 1.711
- avg_logFC Lman1: 0.2986
- avg_logFC Lpgat1: 0.3946
- avg_logFC Lrg1: 0.4368
- avg_logFC Lrp1: 0.5051
- avg_logFC Lrrc59: 0.3181
- avg_logFC Manf: 0.4689
- avg_logFC Mlec: 0.3246
- avg_logFC Mpc1: −0.2818
- avg_logFC Mtus1: 0.3621
- avg_logFC Mug2: 0.3704
- avg_logFC Mup3: −0.8062
- avg_logFC Mup4: −1.087
- avg_logFC Mup5: −1.371
- avg_logFC Mup6: −1.678
- avg_logFC Mup8: −0.6133
- avg_logFC Mup9: −1.847
- avg_logFC Mup11: −1.611
- avg_logFC Mup13: −0.6949
- avg_logFC Mup15: −1.235
- avg_logFC Mup16: −1.019
- avg_logFC Mup17: −1.8
- avg_logFC Mup18: −1.727
- avg_logFC Mup19: −1.699
- avg_logFC Mup20: −0.2819
- avg_logFC Mup21: −0.6977
- avg_logFC Myh9: 0.6391
- avg_logFC Nab1: 0.3342
- avg_logFC Nars: 0.3532
- avg_logFC Ndufa4: −0.4433
- avg_logFC Ndufb2: −0.3412
- avg_logFC Ndufb4: −0.3251
- avg_logFC Ndufb11: −0.4275
- avg_logFC Ndufs6: −0.3592
- avg_logFC Nedd4: 0.3774
- avg_logFC Nr1d2: 0.4306
- avg_logFC Nr5a2: 0.322
- avg_logFC Oat: −0.5212
- avg_logFC Oaz1: −0.3748
- avg_logFC Orm1: 0.3651
- avg_logFC Orm2: 0.2715
- avg_logFC P4hb: 0.4052
- avg_logFC Pdcd4: 0.4882
- avg_logFC Pdia3: 0.5938
- avg_logFC Pdia4: 0.4882
- avg_logFC Pdia6: 0.3365
- avg_logFC Pgrmc1: 0.3502
- avg_logFC Plg: 0.2617
- avg_logFC Pon1: −0.3227
- avg_logFC Prdx1: −0.2677
- avg_logFC Prg4: 0.4306
- avg_logFC Prkd3: 0.3665
- avg_logFC Pten: 0.3559
- avg_logFC Pzp: 0.416
- avg_logFC Qsox1: 0.3424
- avg_logFC Rab1: 0.3526
- avg_logFC Rdh7: −0.269
- avg_logFC Rdx: 0.3736
- avg_logFC Retsat: −0.3658
- avg_logFC Rnase4: 0.5178
- avg_logFC Rpn1: 0.4124
- avg_logFC Rps2: −0.3845
- avg_logFC Rps27l: −0.5485
- avg_logFC Rrbp1: 0.3069
- avg_logFC Rsp14: −0.2923
- avg_logFC S100a1: −0.3762
- avg_logFC Saa1: 0.5582
- avg_logFC Saa2: 0.9645
- avg_logFC Saa4: 0.3755
- avg_logFC Sar1b: −0.3176
- avg_logFC Sc5d: 0.345
- avg_logFC Scd1: 0.7267
- avg_logFC Sds: −0.407
- avg_logFC Sec61a1: 0.3139
- avg_logFC Sel1l: 0.336
- avg_logFC Selenbp2: −0.3833
- avg_logFC Sephs2: 0.89
- avg_logFC Sepp1: 0.4486
- avg_logFC Serp1: 0.3124
- avg_logFC Serpina1a: −0.6752
- avg_logFC Serpina1b: −0.3018
- avg_logFC Serpina1c: −0.4026
- avg_logFC Serpina1e: −0.2843
- avg_logFC Serpina3c: −0.4089
- avg_logFC Serpina3n: 0.4137
- avg_logFC Serpina10: 0.565
- avg_logFC Serpina1d: −0.494
- avg_logFC Slc3a1: 0.341
- avg_logFC Slc7a2: 0.3526
- avg_logFC Slc38a4: 0.2637
- avg_logFC Snord118: 0.3914
- avg_logFC Sod1: −0.3036
- avg_logFC Sparcl1: −0.2536
- avg_logFC Spcs3: 0.3942
- avg_logFC Ssr1: 0.3278
